Results on 20 compounds are retold here after US9840513B2 (AbbVie S.à.r.l., priority 2015, dated 2017).

pEC50: −log10 of the molar value.

In this assay the target is T1, F508delCFTR cell surface expression in CFBE41o-F508delCFTR-HRP cells (Homo sapiens, UniProt P13569, DEL508-508).
T1 construct: fused on or other part: Horseradish peroxidase (HRP) reporter inserted in the fourth exofacial (extracellular) loop of CFTR; expression is doxycycline-inducible
Put plainly: Cell Surface Expression-Horse Radish Peroxidase (CSE-HRP) Assay. Format: cell-based. As to conditions: for pEC50: CFBE41o-F508delCFTR-HRP cells, 18-24 hours at 33° C., 8-point curve, highest concentration 20 μM; for Maximum % activity (%): maximum at any tested concentration, normalized to on-plate positive control (3 μM). The method, boiled down:
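Correctors incubated 18-24 h at 33 °C on doxycycline-induced (0.5 μg/mL, 72 h) CFBE41o-F508delCFTR-HRP cells, 3-fold series from 20 μM. After DPBS washes, luminol luminescence read; activity expressed relative to DMSO and a 3 μM positive control, EC50 fitted from triplicate plates.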

As a reminder, the pEC50 is −log10 of the EC50, conventionally taken in molar units. High values mean a small EC50, low ones a large EC50.

T1 sequence (P13569 with tags, fused parts or gaps DEL508-508 limits assumed): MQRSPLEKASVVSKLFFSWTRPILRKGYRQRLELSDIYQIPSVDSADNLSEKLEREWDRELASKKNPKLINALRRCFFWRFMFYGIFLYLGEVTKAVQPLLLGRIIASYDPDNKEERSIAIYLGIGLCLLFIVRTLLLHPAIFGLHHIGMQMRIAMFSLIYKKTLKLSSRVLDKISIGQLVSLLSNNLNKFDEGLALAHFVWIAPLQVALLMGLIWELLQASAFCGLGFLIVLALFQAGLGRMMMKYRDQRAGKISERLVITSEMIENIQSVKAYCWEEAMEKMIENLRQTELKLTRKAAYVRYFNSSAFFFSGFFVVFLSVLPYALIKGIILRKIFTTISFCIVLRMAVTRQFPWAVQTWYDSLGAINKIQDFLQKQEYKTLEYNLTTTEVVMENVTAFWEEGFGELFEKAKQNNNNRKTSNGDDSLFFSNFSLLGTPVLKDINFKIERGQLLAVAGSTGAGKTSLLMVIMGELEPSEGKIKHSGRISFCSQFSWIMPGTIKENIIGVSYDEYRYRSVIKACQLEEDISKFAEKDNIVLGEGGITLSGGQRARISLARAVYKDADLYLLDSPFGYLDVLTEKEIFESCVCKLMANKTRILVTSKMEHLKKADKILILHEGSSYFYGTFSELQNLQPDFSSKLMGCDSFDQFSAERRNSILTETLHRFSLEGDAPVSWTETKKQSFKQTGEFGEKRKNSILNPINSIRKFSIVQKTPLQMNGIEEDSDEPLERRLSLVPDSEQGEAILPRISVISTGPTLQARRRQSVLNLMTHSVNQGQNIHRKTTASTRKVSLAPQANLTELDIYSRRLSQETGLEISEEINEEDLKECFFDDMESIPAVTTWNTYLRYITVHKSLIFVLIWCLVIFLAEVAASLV
T1 sequence (P13569 919-1480 limits assumed, stated change not applied): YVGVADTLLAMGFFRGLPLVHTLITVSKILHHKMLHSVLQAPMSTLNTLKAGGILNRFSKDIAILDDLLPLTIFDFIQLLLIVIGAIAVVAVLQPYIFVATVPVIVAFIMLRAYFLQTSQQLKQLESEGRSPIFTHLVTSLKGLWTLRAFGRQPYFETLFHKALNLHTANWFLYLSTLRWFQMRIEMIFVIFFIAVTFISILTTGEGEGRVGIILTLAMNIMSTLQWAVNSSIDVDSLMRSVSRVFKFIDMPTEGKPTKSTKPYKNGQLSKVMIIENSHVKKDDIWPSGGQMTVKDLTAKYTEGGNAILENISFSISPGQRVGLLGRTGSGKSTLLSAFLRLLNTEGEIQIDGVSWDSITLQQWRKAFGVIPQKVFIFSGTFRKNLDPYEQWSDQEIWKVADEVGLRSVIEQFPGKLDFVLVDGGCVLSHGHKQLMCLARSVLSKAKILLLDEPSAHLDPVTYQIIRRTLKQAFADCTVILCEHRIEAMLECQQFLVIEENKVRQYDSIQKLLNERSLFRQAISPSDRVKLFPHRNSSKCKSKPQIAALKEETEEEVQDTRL

On to `C[C@]1(C(=O)Nc2cc(-c3ccccc3)cn(-c3ccc(C(=O)O)cc3)c2=O)COc2cc3c(cc21)OC(F)(F)O3` [Example 99, 4-[3-{[(7R)-2,2-difluoro-7-methyl-6,7-dihydro-2H-furo[2,3-f][1,3]benzodioxole-7-carbonyl]amino}-2-oxo-5-phenylpyridin-1(2H)-yl]benzoic acid], for which the pEC50 was 6.64 and the “Maximum % activity (%)” value was 71%.

For the compound `C[C@]1(C(=O)N[C@@H]2C[C@H](c3ccc(C(=O)O)cc3)Oc3cc(OC(F)F)ccc32)COc2cc3c(cc21)OC(F)(F)O3` [Example 139, 4-[(2R,4R)-7-(difluoromethoxy)-4-{[(7R)-2,2-difluoro-7-methyl-6,7-dihydro-2H-furo[2,3-f][1,3]benzodioxole-7-carbonyl]amino}-3,4-dihydro-2H-1-benzopyran-2-yl]benzoic acid], the negative logarithm of the EC50 (pEC50) is 7.70 and the “Maximum % activity (%)” value worked out at 158%.

On to `COc1ccc2c(c1)O[C@@H](c1ccc(C(=O)N3CCOC(CO)C3)cn1)C[C@H]2NC(=O)[C@@]1(C)COc2cc3c(cc21)OC(F)(F)O3` (stereo partly drawn) [Example 237, (7R)-2,2-difluoro-N-[(2R,4R)-2-{5-[2-(hydroxymethyl)morpholine-4-carbonyl]pyridin-2-yl}-7-methoxy-3,4-dihydro-2H-1-benzopyran-4-yl]-7-methyl-6,7-dihydro-2H-furo[2,3-f][1,3]benzodioxole-7-carboxamide], for which the pEC50 is 7.30 and the “Maximum % activity (%)” value is given as 121%.

In the case of `C[C@]1(C(=O)N[C@@H]2C[C@H](C3CCN(C(=O)OCc4ccccc4)CC3)Oc3cc(OC(F)(F)F)ccc32)COc2cc3c(cc21)OC(F)(F)O3` [Example 224, benzyl 4-[(2R,4R)-4-{[(7R)-2,2-difluoro-7-methyl-6,7-dihydro-2H-furo[2,3-f][1,3]benzodioxole-7-carbonyl]amino}-7-(trifluoromethoxy)-3,4-dihydro-2H-1-benzopyran-2-yl]piperidine-1-carboxylate], the pEC50 is 6.51 and the “Maximum % activity (%)” value is given as 199%.

Consider `C[C@]1(C(=O)N[C@@H]2C[C@H]([C@H]3CC[C@H](C(=O)N4CCC(F)(F)CC4)CC3)Oc3cc(OC(F)(F)F)ccc32)COc2cc3c(cc21)OC(F)(F)O3` [Example 270, (7R)—N-[(2R,4R)-2-[trans-4-(4,4-difluoropiperidine-1-carbonyl)cyclohexyl]-7-(trifluoromethoxy)-3,4-dihydro-2H-1-benzopyran-4-yl]-2,2-difluoro-7-methyl-6,7-dihydro-2H-furo[2,3-f][1,3]benzodioxole-7-carboxamide], for which the negative logarithm of the EC50 (pEC50) is 6.74 and the “Maximum % activity (%)” value is on record as 229%.

Consider `COc1ccc2c(c1)O[C@H](COCc1ccccc1)C[C@@H]2NC(=O)[C@@]1(C)COc2cc3c(cc21)OC(F)(F)O3` [Example 278, (7R)—N-{(2S,4S)-2-[(benzyloxy)methyl]-7-methoxy-3,4-dihydro-2H-1-benzopyran-4-yl}-2,2-difluoro-7-methyl-6,7-dihydro-2H-furo[2,3-f][1,3]benzodioxole-7-carboxamide], for which the pEC50 is 5.81 and the “Maximum % activity (%)” value was 86%.

In the case of `C[C@]1(C(=O)Nc2cccc(N3CCOC(CO)C3)n2)COc2cc3c(cc21)OC(F)(F)O3` (stereo partly drawn) [Example 87, (7R)-2,2-difluoro-N-{6-[2-(hydroxymethyl)morpholin-4-yl]pyridin-2-yl}-7-methyl-6,7-dihydro-2H-furo[2,3-f][1,3]benzodioxole-7-carboxamide], the negative-log EC50 (pEC50) was 5.73 and the “Maximum % activity (%)” value is listed as 100%.

Regarding `Cc1ccc(NC(=O)[C@]2(C)COc3cc4c(cc32)OC(F)(F)O4)nc1-c1cccc(C(=O)O)c1` [Example 4, 3-(6-{[(7S)-2,2-difluoro-7-methyl-6,7-dihydro-2H-furo[2,3-f][1,3]benzodioxole-7-carbonyl]amino}-3-methylpyridin-2-yl)benzoic acid], the pEC50 is less than 4.70 and the “Maximum % activity (%)” value is listed as 12%.

Consider `COc1ccc2c(c1)O[C@@H](c1ccc(C(=O)N3CC(O)(CCO)C3)cn1)C[C@H]2NC(=O)[C@@]1(C)COc2cc3c(cc21)OC(F)(F)O3` [Example 239, (7R)-2,2-difluoro-N-[(2R,4R)-2-{5-[3-hydroxy-3-(2-hydroxyethyl)azetidine-1-carbonyl]pyridin-2-yl}-7-methoxy-3,4-dihydro-2H-1-benzopyran-4-yl]-7-methyl-6,7-dihydro-2H-furo[2,3-f][1,3]benzodioxole-7-carboxamide], for which the pEC50 was 7.40 and the “Maximum % activity (%)” value amounted to 111%.

In the case of `CC1(C(=O)Nc2cccc(N3CCC(C(=O)O)CC3)n2)COc2cc3c(cc21)OC(F)(F)O3` (stereo not shown) [Example 71, 1-{6-[(2,2-difluoro-7-methyl-6,7-dihydro-2H-furo[2,3-f][1,3]benzodioxole-7-carbonyl)amino]pyridin-2-yl}piperidine-4-carboxylic acid], the pEC50 is 5.91 and the “Maximum % activity (%)” value was 128%.

Turning to `CC1CN(c2cccc(NC(=O)[C@@]3(C)COc4cc5c(cc43)OC(F)(F)O5)n2)CC1C(=O)O` (stereo partly drawn) [Example 116, 1-(6-{[(7R)-2,2-difluoro-7-methyl-6,7-dihydro-2H-furo[2,3-f][1,3]benzodioxole-7-carbonyl]amino}pyridin-2-yl)-4-methylpyrrolidine-3-carboxylic acid], the pEC50 is 5.96 and the “Maximum % activity (%)” value is 136%.

Consider `CC(O)CNC(=O)[C@H]1CC[C@H]([C@H]2C[C@@H](NC(=O)[C@@]3(C)COc4cc5c(cc43)OC(F)(F)O5)c3ccc(OC(F)(F)F)cc3O2)CC1` (stereo partly drawn) [Example 258, (7R)-2,2-difluoro-N-[(2R,4R)-2-{trans-4-[(2-hydroxypropyl)carbamoyl]cyclohexyl}-7-(trifluoromethoxy)-3,4-dihydro-2H-1-benzopyran-4-yl]-7-methyl-6,7-dihydro-2H-furo[2,3-f][1,3]benzodioxole-7-carboxamide], for which the pEC50 is 6.96 and the “Maximum % activity (%)” value amounted to 174%.

For `C[C@]1(C(=O)Nc2cccc(NC[C@H](O)CO)n2)COc2cc3c(cc21)OC(F)(F)O3` [Example 93, (7R)—N-(6-{[(2S)-2,3-dihydroxypropyl]amino}pyridin-2-yl)-2,2-difluoro-7-methyl-6,7-dihydro-2H-furo[2,3-f][1,3]benzodioxole-7-carboxamide], the pEC50 is 5.82 and the “Maximum % activity (%)” value stood at 89%.

As to `COc1ccc2c(c1)O[C@@H](c1ccc(C(=O)NCCCC(N)=O)cn1)C[C@H]2NC(=O)[C@@]1(C)COc2cc3c(cc21)OC(F)(F)O3` [Example 228, N-(4-amino-4-oxobutyl)-6-[(2R,4R)-4-{[(7R)-2,2-difluoro-7-methyl-6,7-dihydro-2H-furo[2,3-f][1,3]benzodioxole-7-carbonyl]amino}-7-methoxy-3,4-dihydro-2H-1-benzopyran-2-yl]pyridine-3-carboxamide], the negative-log EC50 (pEC50) is 7.05 and the “Maximum % activity (%)” value is reported as 108%.

`COc1ccc2c(c1)O[C@@H](c1ccc(C(=O)N3CCC(O)(CCO)C3)cn1)C[C@H]2NC(=O)[C@@]1(C)COc2cc3c(cc21)OC(F)(F)O3` (stereo partly drawn) [Example 238, (7R)-2,2-difluoro-N-[(2R,4R)-2-{5-[3-hydroxy-3-(2-hydroxyethyl)pyrrolidine-1-carbonyl]pyridin-2-yl}-7-methoxy-3,4-dihydro-2H-1-benzopyran-4-yl]-7-methyl-6,7-dihydro-2H-furo[2,3-f][1,3]benzodioxole-7-carboxamide]: the pEC50 is 7.10 and the “Maximum % activity (%)” value is listed as 113%.

Turning to `CCOC(=O)[C@H]1CC[C@H]([C@H]2C[C@@H](NC(=O)[C@@]3(C)COc4cc5c(cc43)OC(F)(F)O5)c3ccc(OC(F)(F)F)cc3O2)CC1` [Example 148, ethyl trans-4-[(2R,4R)-4-{[(7R)-2,2-difluoro-7-methyl-6,7-dihydro-2H-furo[2,3-f][1,3]benzodioxole-7-carbonyl]amino}-7-(trifluoromethoxy)-3,4-dihydro-2H-1-benzopyran-2-yl]cyclohexane-1-carboxylate], the pEC50 is 7.39 and the “Maximum % activity (%)” value came to 145%.

Take `COc1ccc2c(c1)O[C@@H](c1ccc(C(=O)N(C)CCO)cn1)C[C@H]2NC(=O)[C@@]1(C)COc2cc3c(cc21)OC(F)(F)O3` [Example 234, 6-[(2R,4R)-4-{[(7R)-2,2-difluoro-7-methyl-6,7-dihydro-2H-furo[2,3-f][1,3]benzodioxole-7-carbonyl]amino}-7-methoxy-3,4-dihydro-2H-1-benzopyran-2-yl]-N-(2-hydroxyethyl)-N-methylpyridine-3-carboxamide]: the negative logarithm of the EC50 (pEC50) is 7.40 and the “Maximum % activity (%)” value is listed as 112%.

Take `C[C@]1(C(=O)Nc2cnc(N3CCC[C@H]3C(=O)O)cn2)COc2cc3c(cc21)OC(F)(F)O3` [Example 102, 1-(5-{[(7R)-2,2-difluoro-7-methyl-6,7-dihydro-2H-furo[2,3-f][1,3]benzodioxole-7-carbonyl]amino}pyrazin-2-yl)proline]: the pEC50 was 5.08 and the “Maximum % activity (%)” value is reported as 61%.

As for `C=Cc1cnc([C@H]2C[C@@H](NC(=O)[C@@]3(C)COc4cc5c(cc43)OC(F)(F)O5)c3ccc(OC)cc3O2)cn1` [Example 190, (7R)—N-[(2R,4R)-2-(5-ethenylpyrazin-2-yl)-7-methoxy-3,4-dihydro-2H-1-benzopyran-4-yl]-2,2-difluoro-7-methyl-6,7-dihydro-2H-furo[2,3-f][1,3]benzodioxole-7-carboxamide], the pEC50 is 7.05 and the “Maximum % activity (%)” value is 115%.

Take `C[C@]1(C(=O)Nc2cccc(N3CC[C@@H](O)C3)n2)COc2cc3c(cc21)OC(F)(F)O3` [Example 91, (7R)-2,2-difluoro-N-{6-[(3R)-3-hydroxypyrrolidin-1-yl]pyridin-2-yl}-7-methyl-6,7-dihydro-2H-furo[2,3-f][1,3]benzodioxole-7-carboxamide]: the pEC50 is 6.68 and the “Maximum % activity (%)” value is reported as 116%.
